Assay results published in patent publication EP4759810A1, “PROTAC TARGETING BCL-XL PROTEIN AND USE THEREOF” (BEIJING SUNCELL BIO-MEDICAL CO., LTD., priority 2023, dated 2025).
Read-outs that look alike come from different tables or passages of the source. Values belong to the compound of their own block, whether it stands above or below them.

Experiments:
[1] = test system: Molt-4 cells; experiment: Detection of E3 enzyme-dependence: Molt-4 cell killing with or without pomalidomide (CCK-8); type: cell-based; conditions: 10 µM pomalidomide, Figure 2
Procedure: (§1) Actively growing and healthy Molt-4 cells were collected, centrifuged at 1000 rpm for 5 minutes, and after removing the supernatant, the cells were resuspended in fresh RPMI-1640 medium containing 10% fetal bovine serum. Cell counting was then performed. The cell density was adjusted to 120,000 cells per milliliter, and 100 µL of the cell suspension was added to each well of a 96-well transparent cell culture plate. It was noted that the edge wells of the 96-well plate were not used for testing, and 300 µL of PBS alone was added to these wells to reduce medium evaporation.
Molt-4 cells were plated in duplicate according to the number of the tested small molecules, so as to test the effects with and without the addition of pomalidomide (a competitive ligand specific for E3 ligase), in which one half of the parallel cells was added 10 µM pomalidomide. A series of small molecule concentration gradients (0.001, 0.003, 0.01, 0.03, 0.1, 0.3, 1, and 3 µM) were pre-set, and a series of 2× drug dilutions for the above concentrated were prepared in DMEM medium containing 10% fetal bovine serum. 100 µL of the above DMEM medium containing the gradient concentrations of the drug was added to 96-well plates that have been pre-plated with cells, so that the final drug concentration in each well was the pre-set series of concentrations respectively. Three replicate wells were used for each test drug concentration. The 96-well plates were placed back in a 37°C incubator, and the cell viability was detected after three days.
(§2) Cell viability after drug treatment was detected by using the CCK-8 method: three days after adding the drugs, the plates were taken out, and the supernatant was discarded. Then, 100 µL of pre-prepared CCK-8 working solution was added to each well. The CCK-8 working solution was obtained through diluting a CCK-8 stock solution (C0041, Beyotime) by 10-fold volumn with a serum-free DMEM culture medium. The 96-well plates with the added CCK-8 working solution were placed back in the 37°C incubator and incubated for 0.5-2 hours. The plates were then taken out, and the absorbance value (OD value) of each well was measured at a wavelength of 450 nm. The cell viability in each experimental group was calculated according to the following formula: Relative cell viability (%) = (Blank control group - Experimental group) / Blank control group × 100%.

[2] = test system: HEF cells; experiment: Senescent cell killing activity test, HEF cell model (CCK-8); type: cell-based, human; conditions: higher concentration (25 µM)
Procedure: To avoid replication of the induced senescent cells, low-passage proliferating HEF cells (<10 passages), MRC5 cells (<6 passages), and BJ cells (<10 passages) were used as normal controls. For chemical drug induced senescence, HEF cells were treated with 10 µM etoposide (Selleck, S1225) for 36-48 hours, MRC5 cells were treated with 5 µM bleomycin (Selleck, S1225) for 72 hours, and BJ cells were treated with 10 µg/mL bleomycin for 72 hours. Three days after the treatment, the cells were subcultured in fresh culture medium at a 1:3 ratio for 72 hours before further analysis and use.
Non-senescent and induced-senescent HEF cells, non-senescent and induced-senescent MRC5 cells, and non-senescent and induced-senescent BJ cells were respectively digested with trypsin, and centrifuged at 1000 rpm for 5 minutes. Then, the supernatant was removed, and the cells were resuspended in fresh DMEM culture medium containing 10% fetal bovine serum for counting. The cell density was adjusted so that the non-senescent cell density was 4000 cells/100 µL and the senescent cell density was 7000 cells/100 µL. 100 µL of the cell suspension was added to each well of a 96-well transparent cell culture plate. It was noted that the edge wells of the 96-well plate were not used as testing wells, and 300 µL of PBS alone was added to these wells to reduce evaporation of the culture medium. The 96-well plates with the well-plated cells were placed back in a 37°C incubator for overnight culture until the cells adhered. On the next day, the small molecule compounds to be tested were prepared and added after the cells had adhered.
A series of small molecule concentration gradients (0.01, 0.03, 0.1, 0.3, 1, 3, 10, and 25 µM) were pre-set, and a series of 2× drug dilutions for the above concentrations were prepared in DMEM culture medium containing 10% fetal bovine serum. 100 µL of the above DMEM culture medium containing the gradient concentrations of the drug was added to each well of the 96-well plate that had been well-plated with cells, so that the final drug concentration in each well was the pre-set series of concentrations. Three replicate wells were used for each test drug concentration. The 96-well plates were placed back in a 37°C incubator, and cell viability was measured after three days.
Three days after adding the drug, the plates were taken out, and the supernatant was discarded. 100 µL of pre-prepared CCK-8 working solution was added to each well. The CCK-8 working solution was obtained through diluting a CCK-8 stock solution (C0041, Beyotime) with a serum-free DMEM culture medium by 10-fold volumn. The 96-well plates containing the CCK-8 working solution were placed back in the 37°C incubator and incubated for 0.5-2 hours. The plates were then taken out, and the absorbance value (OD value) of each well was measured at a wavelength of 450 nm. The cell viability in each experimental group was calculated according to the following formula: Relative cell viability (%) = (Blank control group - Experimental group) / Blank control group × 100%.

[3] = test system: Molt-4 cells; experiment: Molt-4 cell killing activity test (CCK-8); type: cell-based; conditions: for EC50: Homo sapiens
Procedure: as §1, with “Molt-4 cells were cultured and amplified in 10 cm dishes by using RPMI-1640 medium supplemented with 10% fetal bovine serum. Actively” for “Actively”, “testing;” for “testing,”
The small molecule compounds to be tested for activity were prepared. A series of small molecule concentration gradients (0.001, 0.003, 0.01, 0.03, 0.1, 0.3, 1, and 3 µM) were pre-set, and a series of 2× drug dilutions for the above concentrations were prepared in RPMI-1640 medium containing 10% fetal bovine serum. 100 µL of the above medium containing the gradient concentrations of the drug was added to each well of a 96-well plate pre-seeded with cells, so that the final drug concentration in each well was the pre-set concentration gradient. Three replicate wells were used for each tested drug concentration. The 96-well plate was placed back in a 37°C incubator, and the cell viability was measured after three days.
as §2, with “The plate” for “Cell viability after drug treatment”, “taken out” for “detected by using the CCK-8 method:”, “drugs,” for “drugs, the plates were taken out,”, “and” for “and the supernatant was discarded. Then,”, “RPMI-1640” for “DMEM culture”, “nm, and the” for “nm. The”

[4] = target: T1, Bcl-xL protein (Homo sapiens, UniProt Q07817); experiment: Degradation experiment of Bcl-xL target protein (Western blot in Molt-4 cells); type: cell-based; conditions: 100 nM, 0, 2, 6, 16 h, GAPDH internal control, Figure 4
T1 construct: host or cells: Molt-4 cells
Procedure: Actively growing and healthy Molt-4 cells were subcultured into a fresh RPMI-1640 medium containing 10% fetal bovine serum, and each PROTAC molecule was added thereto at a final concentration of 100 nM. After drug treatment for the specified times (0, 2, 6, and 16 hours), the cells were collected, the supernatant was discarded by centrifugation, and the cells were washed twice with pre-cooled PBS buffer. Total protein was extracted with a lysis buffer (Servicebio, G2002-100ML), and the protein concentration was normalized by using a BCA protein quantification kit (Servicebio, G2026). Protein samples were mixed with a protein-loading buffer and incubated at 95°C for 5 minutes. Western blotting experiments were performed by using the following antibodies: Bcl-xL (Abcam, catalog number ab32370), diluted at 1:500; GAPDH antibody (Servicebio, catalog number GB15004), diluted at 1:1000; and horseradish peroxidase-conjugated goat anti-rabbit secondary antibody (Servicebio, catalog number GB23303), diluted at 1:5000.

[5] = Metabolic stability assay in liver microsomes (mouse); type: in vitro ADME
Procedure: (§3) The metabolic reaction of compounds in liver microsome was performed in a system with a total volume of 400 µL, and the following steps below were sequentially performed for the reaction and detection: 1) 200 µL of phosphate buffer (200 mM), 106 µL of sterile ultrapure water, and 40 µL of magnesium chloride solution (50 mM) were added to each detection tube to prepare a reaction working solution. 2) Two reaction systems with or without adding NADPH were prepared for each compound to be tested. For the reaction system with adding NADPH: 10 µL of liver microsomes (20 mg/mL) and 40 µL of NADPH (10 mM) were added to the above working solution; for the reaction system without adding NADPH: 10 µL of liver microsomes (20 mg/mL) and 40 µL of sterile ultrapure water were added to the above working solution. The final concentration of liver microsomes in both reaction systems was 0.5 mg/mL. 3) 4 µL of the compound to be tested ([…]) was added to each reaction tube, resulting in a final concentration of 1 µM for the compound in the reaction system. The detection tubes were placed at 37°C for reaction. 4) 50 µL samples were taken from each detection tube at 0, 15, 30, 45, and 60 minutes after adding the compound. The reaction was terminated by adding cold acetonitrile containing IS (100 nM alprazolam, 200 nM labetalol, 200 nM caffeine, and 2 µM ketoprofen) in a 4× volume. The samples were centrifuged at 3220 g for 40 minutes, 100 µL of the supernatant was mixed with 100 µL of ultrapure water, and a sample was taken for LC-MS/MS analysis.
(§4) Calculation of in vitro liver microsomal metabolic half-life and in vitro metabolic intrinsic clearance rate: The LC-MS detection results were analyzed to obtain the percentage of the remaining amount of the tested compound relative to the initial amount at each time point. The natural logarithm of the remaining percentage was linearly fitted against the incubation time.

[6] = Metabolic stability assay in liver microsomes (human); type: in vitro ADME
Procedure: as §3, §4

[7] = 72 h, Molt-4 cells, three days, CCK-8, read-out: EC50 (Molt-4)
[8] = mouse liver microsomes 0.5 mg/mL, 1 µM compound, 37°C
[9] = human liver microsomes 0.5 mg/mL, 1 µM compound, 37°C

T1 sequence (Q07817 whole entry): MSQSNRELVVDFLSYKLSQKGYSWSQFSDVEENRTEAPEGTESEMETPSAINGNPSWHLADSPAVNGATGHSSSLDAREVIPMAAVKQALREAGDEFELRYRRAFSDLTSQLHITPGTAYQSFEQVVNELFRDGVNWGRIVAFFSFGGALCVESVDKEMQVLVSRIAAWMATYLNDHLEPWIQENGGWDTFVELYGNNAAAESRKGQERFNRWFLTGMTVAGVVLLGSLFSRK

SMILES: CC1(C)CCC(c2ccc(Cl)cc2)=C(CN2CCN(c3ccc(C(=O)NS(=O)(=O)c4ccc(N[C@H](CCN5CCOCC5)CSc5ccccc5)c(S(=O)(=O)C(F)(F)F)c4)cc3)CC2)C1 [ABT-263, reference compound]
cell killing activity after addition of pomalidomide (+poma) compared to without (-poma) [1]: only slightly affected
toxicity on normal non-senescent HEF cells [2]: toxic killing effects on normal non-senescent HEF cells
EC50 [3, 7]: 100 to 1000 nM

SMILES: Cc1ncsc1-c1ccc([C@H](C)NC(=O)[C@@H]2C[C@@H](O)CN2C(=O)[C@@H](NC(=O)CN2CCN(CC#Cc3ccc(OCCCc4ccc(N5CCc6cccc(C(=O)Nc7nc8ccccc8s7)c6C5)nc4C(=O)O)c(F)c3)CC2)C(C)(C)C)cc1 [APH1]
EC50 [3, 7]: 10 to 100 nM
degradation of the Bcl-xL protein [4]: had the ability to degrade the Bcl-xL protein

Clint [5, 8]: 17.61 µL/min/mg protein
T1/2 [5, 8]: 78.69 min
Clint [6, 9]: 53.56 µL/min/mg protein
T1/2 [6, 9]: 25.88 min
SMILES: [2H]C1([2H])CN(c2ccc(-c3cnn(CC45CC6CC(CC(C6)C4)C5)c3C)c(C(=O)O)n2)Cc2c(C(=O)Nc3nc4ccccc4s3)cccc21 [Compound A13D-5]

Clint [5, 8]: 14.07 µL/min/mg protein
T1/2 [5, 8]: 98.52 min
Clint [6, 9]: 50.18 µL/min/mg protein
T1/2 [6, 9]: 27.62 min
SMILES: [2H]C1([2H])Cc2cccc(C(=O)Nc3nc4ccccc4s3)c2CN1c1ccc(-c2cnn(CC34CC5CC(CC(C5)C3)C4)c2C)c(C(=O)O)n1 [Compound A13D-6]
metabolic stability in liver microsomes, in words ([6]; human and mouse liver microsomes, compared with A-1331852 and molecules deuterated at other sites): better metabolic stability in liver microsomes

SMILES: Cc1c(-c2ccc(N3CCc4cccc(C(=O)Nc5nc6ccccc6s5)c4C3)nc2C(=O)O)cnn1CC12CC3CC(CC(C3)C1)C2 [Compound A1331852, reference compound]
cell killing activity after addition of pomalidomide (+poma) compared to without (-poma) [1]: only slightly affected

Clint [5, 8]: 4.90 µL/min/mg protein
half-life at 1 µM [5, 8]: 283 min
microsomal CLint at 1 µM ([5]; mouse liver microsomes, read-out: clearance rate (metabolic clearance rate)): 4.9 µL/min/mg
Clint [6, 9]: 7.36 µL/min/mg protein
half-life at 1 µM [6, 9]: 188 min
microsomal CLint at 1 µM ([6]; human liver microsomes, read-out: clearance rate (metabolic clearance rate)): 7.36 µL/min/mg
SMILES: O=C(Nc1nc2ccccc2s1)c1cccc2c1CN(c1ccc(CCCOc3ccc(C#CCN4CCNCC4)cc3F)c(C(=O)O)n1)CC2 [Compound C1]
cell killing activity after addition of pomalidomide (+poma) compared to without (-poma) [1]: only slightly affected
killing Molt-4 cells at different concentrations (Figure 1), in words ([3]; Figure 1, 0.001-3 µM, comparison with control molecules): higher percentage for killing Molt-4 cells than those of ABT-263 and DT-2216, but lower than those of A-1331852 and A-1155463
EC50 [3, 7]: 10 to 100 nM
EC50 ([3]; Bcl-xL-positive Molt-4 cells, read-out: cellular activity / killing activity (Molt-4 cells)): 10 to 100 nM
activity for killing Molt-4 cells, in words ([3]; comparison with C1, the targeting ligand or control molecules): higher than that of the commercially available control molecule ABT-263, but lower than those of A-1331852 and A-1155463

SMILES: Cc1ncsc1-c1ccc([C@H](C)NC(=O)[C@@H]2C[C@@H](O)CN2C(=O)[C@@H](NC(=O)CCCCCC(=O)N2CCN(CC[C@H](CSc3ccccc3)Nc3ccc(S(=O)(=O)NC(=O)c4ccc(N5CCN(CC6=C(c7ccc(Cl)cc7)CCC(C)(C)C6)CC5)cc4)cc3S(=O)(=O)C(F)(F)F)CC2)C(C)(C)C)cc1 [DT-2216, reference compound]
cell killing activity after addition of pomalidomide (+poma) compared to without (-poma) [1]: almost unaffected
